Source: patent US20190060249A1 (priority 2017, published 2019)

What was measured:
ALDH1A2 = biological target: T1, ALDH1A2 (Homo sapiens, UniProt O94788); test: ALDH fluorescence-coupled enzymatic assay, all-trans-retinal substrate, ALDH1A2; assay type: biochemical
T1 sequence (O94788 1-518): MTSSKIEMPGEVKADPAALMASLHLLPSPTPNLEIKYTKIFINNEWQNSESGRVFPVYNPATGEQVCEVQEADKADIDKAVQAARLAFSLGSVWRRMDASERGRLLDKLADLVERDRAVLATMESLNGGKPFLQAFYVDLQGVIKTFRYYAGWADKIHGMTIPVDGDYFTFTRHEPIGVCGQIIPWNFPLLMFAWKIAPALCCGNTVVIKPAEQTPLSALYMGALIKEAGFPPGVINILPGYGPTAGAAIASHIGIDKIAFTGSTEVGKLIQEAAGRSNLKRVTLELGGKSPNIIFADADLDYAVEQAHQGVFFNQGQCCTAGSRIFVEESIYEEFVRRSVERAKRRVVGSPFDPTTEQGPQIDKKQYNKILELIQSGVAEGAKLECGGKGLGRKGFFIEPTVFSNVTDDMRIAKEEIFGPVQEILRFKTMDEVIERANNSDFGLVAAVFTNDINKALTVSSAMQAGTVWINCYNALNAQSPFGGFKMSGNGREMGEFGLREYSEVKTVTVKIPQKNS
Description: (§1) Assay conditions were modified from the original enzyme assay protocol above using 50 mM NaPPi buffer (pH 7.4), 2.5 mM NAD^+, 10 mM acetaldehyde or all-trans-retinal substrate with the addition of 1 U/mL diaphorase and 0.1 mM resazurin for the secondary reaction. Measurements were collected in triplicate at 25° C.

ALDH3A1 = biological target: T2, ALDH3A1 (Homo sapiens, UniProt P30838); test: ALDH fluorescence-coupled enzymatic assay, all-trans-retinal substrate, ALDH3A1; assay type: biochemical
T2 sequence (P30838 1-453): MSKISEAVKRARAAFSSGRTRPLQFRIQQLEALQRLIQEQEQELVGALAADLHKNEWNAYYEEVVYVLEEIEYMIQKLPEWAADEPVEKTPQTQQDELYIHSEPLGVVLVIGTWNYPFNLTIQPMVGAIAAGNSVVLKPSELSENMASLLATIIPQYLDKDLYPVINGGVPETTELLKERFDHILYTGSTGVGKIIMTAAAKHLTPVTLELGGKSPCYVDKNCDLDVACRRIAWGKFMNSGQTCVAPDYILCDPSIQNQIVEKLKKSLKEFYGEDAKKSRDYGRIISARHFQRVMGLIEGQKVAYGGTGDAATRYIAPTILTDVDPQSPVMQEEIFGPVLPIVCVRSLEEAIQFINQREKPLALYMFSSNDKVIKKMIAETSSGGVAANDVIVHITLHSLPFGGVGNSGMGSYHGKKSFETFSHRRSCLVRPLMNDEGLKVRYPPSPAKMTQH
Description: as §1

[1] = tested on: E13.5 embryonic SMG epithelia; test: Embryonic epithelial rudiment cultures; assay type: cell-based, mouse
From the text: Embryonic epithelial rudiment cultures: Epithelia and mesenchyme were separated using dispase treatment and mechanical dissection and cultured in a drop of laminin on a nucleopore filter over serum-free DMEM/F12 containing holotransferrin and ascorbic acid (complete media) as described for the E13 submandibular gland (Steinberg, Z., Myers, C., Heim, V. M., Lathrop, C. A., Rebustini, I. T., Stewart, J. S., Larsen, M., and Hoffman, M. P. (2005) FGFR2b signaling regulates ex vivo submandibular gland epithelial cell proliferation and branching morphogenesis. Development (Cambridge, England) 132, 1223-1234). Epithelia were cultured with 400 ng/ml FGF10 (R&D Systems) and 0.5 μl/ml heparin sulfate (Sigma Aldrich) in the presence or absence of 25-200 μM ALDH341 or vehicle (PEG) and were subjected to RNA isolation or fixed for immunostaining after 24-48 h.
N=6-7 epithelia per group.
[…] confocal section of all three markers (top) and averaged confocal sections of c-KIT only (bottom).
Samples were tested in triplicate.
Immunohistochemistry: Embryonic rudiment immunofluorescence analysis has been previously described in, Knox, S. M., Lombaert, I. M., Reed, X., Vitale-Cross, L., Gutkind, J. S., and Hoffman, M. P. (2010) Parasympathetic innervation maintains epithelial progenitor cells during salivary organogenesis. Science (New York, N.Y.) 329, 1645-1647. In brief, tissue was fixed with 4% PFA for 20-30 min followed by permeabilizing with 0.1-0.3% Triton-X. Tissue was blocked overnight at 4° C. with 10% Donkey Serum (Jackson Laboratories), 1% BSA (Sigma Aldrich), and MOM IgG-blocking reagent (Vector Laboratories) in 0.01% PBS-Tween-20. SGs were incubated with primary antibodies overnight at 4° C.: rabbit anti-cKIT (1:200, Santa Cruz Biotech, M14), and rat anti-E-cadherin (1:300, Life Technologies, 13-1900). Antibodies were detected using Cy2-, Cy3- or Cy5-conjugated secondary Fab fragment antibodies (Jackson Laboratories) and nuclei stained using Hoescht 33342 (1:1000, Sigma Aldrich). Fluorescence was analyzed using a Leica Sp5 confocal microscope and NIH ImageJ software.
qPCR: RNA was isolated from whole tissue using RNAqueous Micro Kit (Ambion). Total RNA samples were DNase-treated (Ambion), prior to cDNA synthesis using SuperScript reagents (Invitrogen). SYBRgreen qPCR was performed using 1 ng of cDNA and primers designed using Primer3 and Beacon Designer software or found using PrimerBank (http://pga.mgh.harvard.edu/primerbank/). Melt-curves and primer efficiency were determined as previously described (Hoffman, M. P., Kidder, B. L., Steinberg, Z. L., Lakhani, S., Ho, S., Kleinman, H K., and Larsen, M. (2002) Gene expression profiles of mouse submandibular gland development: FGFR1 regulates branching morphogenesis in vitro through BMP- and FGF-dependent mechanisms. Development (Cambridge, England) 129, 5767-5778). Gene expression was normalized to the housekeeping gene S29 (Rps29).

[2] = C57BL/6 female mice irradiated with 30 Gy, treated 8 weeks with Alda-341
Description: Pathology: A complete necropsy was performed by a certified veterinarian. Tissues from brain, heart, kidney, liver, esophagus, thymus, trachea, thyroid, lung, spleen, pancreas, trachea, stomach, pancreas, intestines, bladder, uterus and ovary were fixed on slides and scored for inflammation, necrosis, and apoptosis from a scale of 0 to 5. A complete blood count and blood chemistry panel was assessed by Stanford's Veterinary Services Center.

[3] = tested on: SSC90 (HPV-positive) head and neck squamous cell carcinoma cell line; test: Xenograft study, SSC90; assay type: in vivo, SCID mice; conditions: Alda-341 from one week ahead of irradiation, during and post; 30 Gy over 5 fractions
Description: Xenograft study: Six-week old SCID mice were purchased from the Jackson laboratory and five mice per group were used. SCC90 and SAS cells (2×10^6 cells/injection) were implanted into both flanks of each mouse. Alda-341 treated one week ahead of irradiation and continued during and post radiation. Total 30 Gy over 5 fractions in a week was delivered to the tumor with the rest of the body shielded. Tumor size was measured every 1-2 days. Tumor volume was calculated by the formula (π×length×width×height)/6.

[4] = 200 μM Alda-341, RT-qPCR vs vehicle control

C=C(C)[C@H]1CC=C(C)CC1 [Alda-341, D-limonene]
catalytic activity of all trans-retinal in ALDH1A2 (ALDH1A2): did not increase | catalytic activity of all trans-retinal in ALDH3A1 (ALDH3A1): did not increase | localisation of c-Kit+ cells (immunofluorescence) ([1]; 200 μM Alda-341, 24 h): limited to the end buds only | expression of acinar progenitor marker Sox10 [1, 4]: Increased expression | transcript level of acinar maturation marker Aqp5 [1, 4]: increased transcript levels | transcript level of acinar maturation marker Mist1 [1, 4]: increased transcript levels | number of end buds ([1]; cultured 24 h, 100 μM and 200 μM Alda-341): dose-dependent increase | epithelial area ([1]; cultured 24 h, 100 μM and 200 μM Alda-341, normalized to vehicle control): dose-dependent increase | complete blood count and blood chemistry panel [2]: normal complete blood count and blood chemistry panel | tumor growth and protection of tumors from radiation, SSC90 xenograft [3]: did not increase tumor growth or protect tumors from radiation
